Measurements taken from the supplement of paper PMC10307832.

Legend:
Assay in all cases: relative viability (nuclei count vs DMSO), 5 days (fraction); higher = more cells survive
[1] = compound: C#Cc1cccc(Nc2ncnc3cc(OCCOC)c(OCCOC)cc23)c1 [Erlotinib] + C[C@@H](Oc1cc(-c2cnn(C3CCNCC3)c2)cnc1N)c1c(Cl)ccc(F)c1Cl [Crizotinib] (partner 1 µM)
In short: (§1)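 Medians of duplicate plates are given as relative viability. That measure is the nuclei count in treated wells divided by the count in vehicle wells. Counts were taken on 4× images of lung cancer cell lines in 1536-well plates, 5 days after pin-tool dosing the day after seeding with one drug alone or a fixed anchor-drug dose plus five library-drug doses (not always all listed) in √10 steps.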

[2] = compound: C#Cc1cccc(Nc2ncnc3cc(OCCOC)c(OCCOC)cc23)c1 [Erlotinib] + Nc1ncn([C@H]2C[C@H](O)[C@@H](CO)O2)c(=O)n1 [Decitabine] (partner 2 µM)
In short: as §1

[3] = compound: C#Cc1cccc(Nc2ncnc3cc(OCCOC)c(OCCOC)cc23)c1 [Erlotinib] + COc1cc2c(Oc3ccc(NC(=O)C4(C(=O)Nc5ccc(F)cc5)CC4)cc3F)ccnc2cc1OCCCN1CCOCC1 [Foretinib] (partner 0.25 µM)
In short: as §1

[4] = compound: C#Cc1cccc(Nc2ncnc3cc(OCCOC)c(OCCOC)cc23)c1 [Erlotinib] + CC(=O)Nc1cccc(-n2c(=O)n(C3CC3)c(=O)c3c(Nc4ccc(I)cc4F)n(C)c(=O)c(C)c32)c1 [Trametinib] (partner 0.02 µM)
In short: as §1

[5] = compound: C#Cc1cccc(Nc2ncnc3cc(OCCOC)c(OCCOC)cc23)c1 [Erlotinib] + Cc1nc(Nc2ncc(C(=O)Nc3c(C)cccc3Cl)s2)cc(N2CCN(CCO)CC2)n1 [Dasatinib] (partner 0.075 µM)
In short: as §1

Row | Cell Line | relative viability ([1]; first compound 0.02 µM) | relative viability ([1]; first compound 0.2 µM) | relative viability ([1]; first compound 0.6325 µM) | relative viability ([1]; first compound 2 µM) | relative viability ([2]; first compound 0.6325 µM) | relative viability ([2]; first compound 2 µM) | relative viability ([3]; first compound 0.02 µM) | relative viability ([3]; first compound 0.2 µM) | relative viability ([3]; first compound 0.6325 µM) | relative viability ([3]; first compound 2 µM) | relative viability ([4]; first compound 0.02 µM) | relative viability ([4]; first compound 0.2 µM) | relative viability ([4]; first compound 0.6325 µM) | relative viability ([4]; first compound 2 µM) | relative viability ([5]; first compound 0.2 µM) | relative viability ([5]; first compound 0.6325 µM) | relative viability ([5]; first compound 2 µM) | relative viability ([2]; first compound 0.02 µM) | relative viability ([2]; first compound 0.2 µM) | relative viability ([5]; first compound 0.02 µM)
1 | NCI-H1666 | 1.02 | 0.856 | 0.66 | 0.428 | 0.557 | 0.458 | 1.06 | 0.86 | 0.802 | 0.767 | 0.904 | 0.736 | 0.78 | 0.709 | 0.759 | 0.828 | 0.64 |  |  | 
2 | NCI-H1650 | 0.85 | 0.721 | 0.924 | 0.643 | 0.509 | 0.421 | 0.747 | 0.594 | 0.697 | 0.699 | 0.477 | 0.443 | 0.561 | 0.382 | 0.265 | 0.282 | 0.325 | 0.331 | 0.365 | 0.283
3 | NCI-H322M | 0.786 | 0.707 | 0.668 | 0.322 | 0.55 | 0.545 | 0.925 | 0.619 | 0.565 | 0.45 | 0.472 | 0.461 | 0.462 | 0.445 | 0.246 | 0.257 | 0.238 | 0.718 | 0.582 | 0.231
4 | LC-2-ad | 0.468 | 0.509 | 0.458 | 0.329 | 0.735 | 0.656 | 0.876 | 0.658 | 0.665 | 0.528 | 0.902 | 0.907 | 0.87 | 0.775 | 0.466 | 0.589 | 0.452 | 0.889 | 0.79 | 0.724
5 | LCLC-103H | 1.04 | 1.09 | 1.16 | 1.04 | 0.716 | 0.639 | 0.743 | 0.799 | 0.848 | 0.566 | 0.727 | 0.636 | 0.661 | 0.62 | 0.6 | 0.478 | 0.399 | 0.765 | 0.688 | 
6 | NCI-H661 | 1.16 |  | 1.04 | 0.97 | 0.551 | 0.384 | 1 | 0.921 | 1.1 | 0.705 | 0.601 | 0.483 | 0.593 | 0.457 | 0.693 | 0.735 | 0.443 | 0.566 |  | 0.912
7 | HCC-827 | 0.371 | 0.195 | 0.174 | 0.177 | 0.111 | 0.169 | 0.263 | 0.158 | 0.154 | 0.135 | 0.205 | 0.159 | 0.148 | 0.169 | 0.152 | 0.195 | 0.126 | 0.21 | 0.215 | 0.148
8 | NCI-H2023 | 0.575 | 0.44 | 0.469 | 0.294 | 0.251 | 0.24 | 0.754 | 0.607 | 0.589 | 0.406 | 0.558 | 0.369 | 0.418 | 0.32 | 0.408 | 0.623 | 0.44 | 0.247 | 0.222 | 0.639
